Results taken from article PMC7932537, “Quantitative profiling of protease specificity” (PLoS Computational Biology, 2021).

Assays:
[1] = tested on: MMP-9; experiment: N-terminomic (TMT) analysis of MMP-treated HEK293 secretome: isotopic enrichment of novel N-termini; type: biochemical, human; conditions: for isotopic enrichment (log2(ratio)) (acc.to MMP9): HEK293 proteins; for isotopic enrichment (log2(ratio)): MMP9 cleavages in HEK293 cell proteins, determined by LC-MS/MS, log2(ratio) range (>3σ, 2σ-3σ, 1σ-2σ)
Description: (§1) This was done to achieve a reasonable compromise between the false positive and false negative rates based on the statistical model developed by the authors. […] (See Methods for details).
(§2) HEK293 cells were seeded in 150-mm tissue culture dishes (Corning) and grown to confluence. The confluent cultures were washed with PBS several times to remove serum proteins and kept in serum-free DMEM supplemented with 1 μM GM6001 for 72 hours at 37 C, 5% CO2. The conditioned media was centrifuged at 10,000 x g for 30 minutes at 4 C and concentrated ~100-fold using Centricon Plus-70 (AMD Millipore) 3-kDa m.w. cut-off ultrafilter, and the buffer was exchanged to 50 mM HEPES pH 7.0 containing 150 mM NaCl and 10 mM CaCl2 (Reaction Buffer) using a PD-10 desalting column (GE Healthcare). Aliquots containing 240 μg total protein were incubated at 37 C in the presence of 750 nM MMP2 or 9 or the Reaction Buffer alone for 2 hours. Each reaction was carried out in duplicate. The reactions were stopped by addition of 20 mM EDTA and subjected to denaturation/reduction (4M Urea and 10 mM TCEP, 1 h, 22°C) and alkylation (20 mM iodoacetamide, 30 min, 22°C, in dark). […] The TMT-labeled samples were pooled together, and subjected to TCA precipitation (20% TCA, 16 h, 4°C). Each pellet was washed with -20°C acetone, recovered in 50 mM Tris-HCl pH 8.0, and then digested with trypsin/Lys-C (Promega) for 16 h at 37°C. Digestions were stopped with 0.2% TFA and centrifuged to remove insoluble material. The supernatants were then desalted using Sep-Pak C18 cartridge (50 mg), and then lyophilized.
(§3) Dried pooled sample was reconstituted in 20 mM ammonium formate pH ~10 and fractionated using a Waters Acquity BEH C18 column (2.1x 15 cm, 1.7 μm pore size) mounted on an M-Class Ultra Performance Liquid Chromatography (UPLC) system (Waters). […] A total of 32 fractions were collected and pooled in a non-contiguous manner into 16 total fractions. Pooled fractions were dried to completeness in a SpeedVac concentrator prior to mass spectrometry analysis.
(§4) Dried peptide fractions were reconstituted with 2% ACN-0.1% FA and analyzed by LC-MS/MS using a Proxeon EASY nanoLC system (Thermo Fisher Scientific) coupled to a Q-Exactive Plus mass spectrometer (Thermo Fisher Scientific). […] The mass spectrometer was operated in positive data-dependent acquisition mode. MS1 spectra were measured with a resolution of 70,000 (AGC target: 1e6; mass range: 350–1700 m/z).
(§5) The false discovery rate (FDR) filter for spectrum and protein identification was set to 1%. Carbamidomethylation of cysteines was searched as a fixed modification, while oxidation of methionines and N-terminal acetylation were searched as variable modifications. Enzyme was set to trypsin in a semispecific mode and a maximum of two missed cleavages was allowed for searching. To obtain quantification of the TMT-labeled N-termini, two independent searches were performed–one with TMT10plex MS2 N-terminal reporter quantification and the other for quantification of N-terminal and lysine sidechain.

[2] = tested on: MMP-2; experiment: as above; type: biochemical, human; conditions: for isotopic enrichment (log2(ratio)): MMP2 cleavages in HEK293 cell proteins, determined by LC-MS/MS, novel N-termini, sections log2(ratio) >3σ, 2σ-3σ, 1σ-2σ, RP above 4.5
Description: as §1, §2, §3, §4, §5

[3] = tested on: MMP-9; experiment: Substrate phage display with NGS: relative probability (RP) of P3-P1' tetramer clusters; type: biochemical, human; conditions: MMP9; RP of the substrate's P3-P1' tetramer, substrate phage display with NGS;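 further: ratio of tetramer probability after protease selection to that in naive phage library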
[4] = molecular target: MMP-9 (Homo sapiens, UniProt P14780); experiment: K(obs) of individual phage substrates (set of 1369); type: biochemical; conditions: MMP9; individual phage substrate of the set of 1369 peptides; dash in sequence marks cleavage position
[5] = molecular target: T1, MMP-2 (Homo sapiens, UniProt P08253); experiment: as above; type: biochemical; conditions: MMP2; individual phage substrate from the set of 1369 peptides; hyphen in the sequence marks the cleavage position
T1 sequence (P08253 110-660): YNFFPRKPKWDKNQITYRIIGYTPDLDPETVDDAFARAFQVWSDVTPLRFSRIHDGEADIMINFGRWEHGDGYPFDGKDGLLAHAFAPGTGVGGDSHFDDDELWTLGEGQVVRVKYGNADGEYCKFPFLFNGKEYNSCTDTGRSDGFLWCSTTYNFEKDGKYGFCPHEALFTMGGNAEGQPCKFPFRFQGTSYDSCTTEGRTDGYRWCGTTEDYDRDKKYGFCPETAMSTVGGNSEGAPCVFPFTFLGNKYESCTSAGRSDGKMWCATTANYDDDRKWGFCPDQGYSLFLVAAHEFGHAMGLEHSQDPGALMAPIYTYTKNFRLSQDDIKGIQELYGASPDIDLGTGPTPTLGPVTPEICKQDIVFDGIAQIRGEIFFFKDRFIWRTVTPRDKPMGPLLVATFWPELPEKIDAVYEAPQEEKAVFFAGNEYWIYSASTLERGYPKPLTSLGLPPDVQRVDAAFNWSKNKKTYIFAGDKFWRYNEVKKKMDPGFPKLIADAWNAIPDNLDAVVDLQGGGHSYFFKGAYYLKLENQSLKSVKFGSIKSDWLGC

[6] = MMP9, common set of MMP2-9 selectome, LC-MS/MS
[7] = MMP2 cleaved HEK293 proteins, common set of MMP2-9 selectome, LC-MS/MS
[8] = MS detected cleavage sequence, common MMP2-9 selectome
[9] = MS detected cleavage sequence, HEK293 proteins, common MMP2-9 selectome
[10] = MS detected cleavage sequence, unique part of MMP2 selectome
[11] = MS detected cleavage sequence, HEK293 proteins, unique part of MMP2 selectome

Sequence of MMP-9 (Homo sapiens, UniProt P14780) (P14780 94-707): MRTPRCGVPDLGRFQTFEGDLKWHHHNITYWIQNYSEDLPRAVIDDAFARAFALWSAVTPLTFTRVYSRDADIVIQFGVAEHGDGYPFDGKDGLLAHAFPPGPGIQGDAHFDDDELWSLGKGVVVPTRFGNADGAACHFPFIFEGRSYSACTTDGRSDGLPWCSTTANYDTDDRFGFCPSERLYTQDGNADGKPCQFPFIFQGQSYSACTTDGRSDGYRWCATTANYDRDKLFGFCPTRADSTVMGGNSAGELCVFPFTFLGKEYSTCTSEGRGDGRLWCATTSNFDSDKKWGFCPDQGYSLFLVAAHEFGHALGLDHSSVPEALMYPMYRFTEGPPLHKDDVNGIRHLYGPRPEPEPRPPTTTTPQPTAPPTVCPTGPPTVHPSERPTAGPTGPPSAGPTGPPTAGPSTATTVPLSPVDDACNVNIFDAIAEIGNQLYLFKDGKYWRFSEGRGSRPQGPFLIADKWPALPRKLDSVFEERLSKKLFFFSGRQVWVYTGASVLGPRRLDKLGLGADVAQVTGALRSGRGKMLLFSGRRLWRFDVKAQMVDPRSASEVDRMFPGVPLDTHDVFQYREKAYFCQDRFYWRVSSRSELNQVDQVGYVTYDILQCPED

| Substance | isotopic enrichment (log2(ratio)) (acc.to MMP9) [1, 6] | isotopic enrichment (log2(ratio)) (acc.to MMP2) [2, 7] | isotopic enrichment (log2(ratio)) [1] | isotopic enrichment (log2(ratio)) (acc.to MMP9) [1, 8] | isotopic enrichment (log2(ratio)) (acc.to MMP2) [2, 9] | relative probability (RP) [3] | Kobs [4] [M⁻¹ s⁻¹] | Kobs [5] [M⁻¹ s⁻¹] | also measured |
| --- | --- | --- | --- | --- | --- | --- | --- | --- | --- |
| ADIAF-LIDGSF | 0.8797 | 1.124 |  |  |  |  |  |  | isotopic enrichment (log2(ratio)) [2]: 1.124 log2(ratio) |
| AGAAA-LSSASS | 3.911 | 2.491 | 3.911 | 3.911 log2(ratio) | 2.491 log2(ratio) |  |  |  |  |
| AGARG-IQGPQG |  |  | 1.521 | 1.521 log2(ratio) | 0.8156 log2(ratio) |  |  |  |  |
| APPAA-VAAVAG |  |  | 1.731 | 1.731 log2(ratio) | 2.4957 log2(ratio) |  |  |  |  |
| ARPNS-MVVEHP | 3.297 | 2.409 | 3.297 | 3.297 log2(ratio) | 2.409 log2(ratio) |  |  |  |  |
| DAPRA-VFPSIV | 1.811 | 1.669 | 1.811 | 1.811 log2(ratio) | 1.669 log2(ratio) |  |  |  |  |
| DMAAA-MKAVTE | 1.328 | 1.766 |  |  |  |  |  |  | isotopic enrichment (log2(ratio)) [2]: 1.766 log2(ratio) |
| DMIDN-LLSPDL |  |  |  |  |  |  |  |  | isotopic enrichment (log2(ratio)) (acc.to MMP9) [1, 10]: 1.029 log2(ratio); isotopic enrichment (log2(ratio)) (acc.to MMP2) [2, 11]: 1.245 log2(ratio) |
| EAPRP-YSKQVS | 1.531 | 1.239 | 1.531 | 1.531 log2(ratio) | 1.239 log2(ratio) |  |  |  |  |
| EEPLN-VGSVAA | 3.642 | 2.637 | 3.642 | 3.642 log2(ratio) | 2.637 log2(ratio) |  |  |  |  |
| EGPYS-ISVLYG | 0.9411 | 1.176 |  |  |  |  |  |  | isotopic enrichment (log2(ratio)) [2]: 1.176 log2(ratio) |
| EHPVL-LTEAPL |  |  | 3.462 | 3.462 log2(ratio) | 1.599 log2(ratio) |  |  |  |  |
| ETAIN-ITTYPD | 2.536 | 1.84 | 2.536 | 2.536 log2(ratio) | 1.84 log2(ratio) |  |  |  |  |
| FHPEQ-LITGKE | 2.628 | 2.036 | 2.628 | 2.628 log2(ratio) | 2.036 log2(ratio) |  |  |  |  |
| FNPLS-LEELGS |  |  | 1.82 | 1.82 log2(ratio) | 0.84 log2(ratio) |  |  |  |  |
| FSLFG-LGGEPG | 2.104 | 1.417 | 2.104 | 2.104 log2(ratio) | 1.417 log2(ratio) |  |  |  |  |
| FSVSS-LAEGSV | 1.22 | 1.257 |  |  |  |  |  |  | isotopic enrichment (log2(ratio)) [2]: 1.257 log2(ratio) |
| GEVQA-MLGQST |  |  | 1.4957 | 1.4957 log2(ratio) | 0.5656 log2(ratio) |  |  |  |  |

| Substance | isotopic enrichment (log2(ratio)) (acc.to MMP9) [1, 6] | isotopic enrichment (log2(ratio)) (acc.to MMP2) [2, 7] | isotopic enrichment (log2(ratio)) [1] | isotopic enrichment (log2(ratio)) (acc.to MMP9) [1, 8] | isotopic enrichment (log2(ratio)) (acc.to MMP2) [2, 9] | relative probability (RP) [3] | Kobs [4] [M⁻¹ s⁻¹] | Kobs [5] [M⁻¹ s⁻¹] | also measured |
| --- | --- | --- | --- | --- | --- | --- | --- | --- | --- |
| GFGRG-LSDKKS | 2.021 | 1.9486 | 2.021 | 2.021 log2(ratio) | 1.9486 log2(ratio) |  |  |  |  |
| GFLAW-LYNESP | 1.774 | 2.43 | 1.774 | 1.774 log2(ratio) | 2.43 log2(ratio) |  |  |  |  |
| GGGSA-LAGGAG |  |  |  |  |  |  |  |  | isotopic enrichment (log2(ratio)) (acc.to MMP9) [1, 10]: 2.488 log2(ratio); isotopic enrichment (log2(ratio)) (acc.to MMP2) [2, 11]: 3.0018 log2(ratio) |
| GLPRE-LAEAVA |  |  | 2.272 | 2.272 log2(ratio) | 0.7485 log2(ratio) |  |  |  |  |
| GMPGE-ISEHEG | 2.131 | 2.198 | 2.131 | 2.131 log2(ratio) | 2.198 log2(ratio) |  |  |  |  |
| WQVRY-LTASG |  |  |  |  |  | 32.3577 | 12792.1 | 12792.1 |  |
| WRPFS-YTASG |  |  |  |  |  | 43.4281 | 12792.1 | 12792.1 |  |
| WSPSS-YTASG |  |  |  |  |  | 41.6306 | 3344.37 | 12792.1 |  |
| WTPRG-NTASG |  |  |  |  |  | 15.8425 | 2409.72 | 231.616 |  |
| WYPSK-LTASG |  |  |  |  |  | 38.9571 | 10866.7 | 12792.1 |  |
| YASIR-TASGA |  |  |  |  |  | 0.562 | 2545.25 | 12792.1 |  |
| YGPRA-ITASG |  |  |  |  |  | 47.8426 | 12792.1 | 12792.1 |  |
| YGPSL-LTASG |  |  |  |  |  | 32.4935 | 12792.1 | 12792.1 |  |
| YHPIS-LTASG |  |  |  |  |  | 42.7806 | 12792.1 | 12792.1 |  |
| YIPLV-YTASG |  |  |  |  |  | 9.417 | 1239.69 | 0 |  |
| YIPTA-FTASG |  |  |  |  |  | 24.5969 | 9740.44 | 12792.1 |  |
| YKPVY-YTASG |  |  |  |  |  | 30.5191 | 12792.1 | 12792.1 |  |
| YSTLR-TASGA |  |  |  |  |  | 0 | 1239.69 | 12792.1 |  |
